Assay results: patent US20260137661A1, “PPAR-ALPHA/GAMMA AGONIST FOR USE IN THE TREATMENT OF LIVER FAILURE” (Genfit, priority 2022, published 2026)

Columns and labels:
HepG2 cell line = assay: Staurosporine-induced apoptosis in HepG2 cells: caspase 3/7 activity; type: cell-based; settings: Homo sapiens, 16 h pre-treatment, then 10 μM staurosporin for 4 h, p<0.001
Method: In order to evaluate the effect of the compounds to protect hepatocytes from cell death, apoptosis was induced by staurosporine in the human hepatoblastoma-derived HepG2 cell line (ECACC, #85011430, Sigma-Aldrich). HepG2 was cultured in high-glucose DMEM medium (#41965, Gibco, France) supplemented with 10% of fetal bovine serum (FBS, #10270, Gibco), 1% penicillin/streptomycin (#15140, Gibco), 1% sodium pyruvate (#11360, Gibco) and 1% MEM non-essential amino acids (#11140, Gibco) in a 5% CO2 incubator at 37° C.
To evaluate caspase 3/7 activity, which is a surrogate marker of apoptosis, 1.5×10^4 cells were plated in a 384-well plate (#781080, Greiner, France). After cell adherence (8 hours), cells were serum starved for 16h in the presence of compounds (dose ranging from 0.3 to 10 µM) or vehicle. Thereafter, cells were treated with 10 μM staurosporin (#569397, Sigma-Aldrich, Germany) supplemented with compound for additional 4 hours before cell lysis and caspase activity measurement.
Caspase 3/7 activity was measured using Caspase Glow™ 3/7 assay (#G8093, Promega, USA). Luminescence was measured using a Spark microplate reader (#30086376, Tecan, USA). The amount of luminescence (RLU) directly correlates with caspase 3/7 activity.

C57BL/6J male mice = assay: LPS/GalN mouse model of acute liver failure: serum hepatic markers and cytokines; type: in vivo; settings: 1 mg/kg/day oral gavage for 3 days before LPS/GalN injection, serum 6 h after LPS/GalN, vs vehicle
Description: Low doses of LPS in combination with the hepatotoxic agent D-Galactososamine (GalN) promote specific liver injury in mice and induce the inflammatory cytokines production, thus recapitulating the clinical picture of acute liver injury in human (Pourcet et al., Gastroenterology, 2018, 154 (5), p 1449-1464.e20). Hepatic injury induced by LPS/GalN is therefore a widely used mouse model to evaluate the effect of pharmacological agents on acute liver failure.
To evaluate the efficacy of the compounds on liver injury and function and the inflammatory response occurring upon acute liver failure, C57BL/6J male mice (8 weeks old, Janvier Labs) received an intraperitoneal injection of 0.025 mg/kg LPS (Escherichia coli 0111: B4, #L2630, Sigma-Aldrich) supplemented with 700 mg/kg D-Galactosamine (GalN, G0500, Sigma-Aldrich).
Cpd.1 (1 mg/kg/day) or vehicle (carboxymethylcellulose 1%, 0.1% Tween 80) was administered by oral gavage during the three days before LPS/GalN injection (n=10-12 per group). Mice were sacrificed 6h after LPS/GalN injection. Blood samples were obtained from retro-orbital sinus puncture on animals slightly asleep with isoflurane (Isoflurin 1000 mg/g, GTIN 03760087152678, Axience) just before sacrifice. A group of mice (n=4) received an intraperitoneal injection to be used as healthy controls.
Serum aspartate aminotransferase (ASAT) was measured using Randox kit for Daytona Plus automate (AS 8306) according to the manufacturer recommendation. ASAT enzymatically transforms alpha-oxoglutarate and L-aspartate into L-glutamate and oxaloacetate. In the presence of NADH, the generated oxaloacetate is converted by malate dehydrogenase to form L-malate and NAD+. The kinetics of the reaction is studied and allows the concentration of ASAT to be calculated.
Serum alanine aminotransferase (ALAT) was measured using Randox kit for Daytona Plus automate (AL 8304) according to the manufacturer recommendation. ALAT enzymatically transforms alpha-oxoglutarate and L-alanine into L-glutamate and pyruvate. In the presence of NADH, the generated pyruvate is converted by lactate dehydrogenase to form L-lactate and NAD+. The kinetics of the reaction is studied and allows the concentration of ALAT to be calculated.
Serum total bilirubin was measured using Randox kit for Daytona Plus automate (BR 8377) according to the manufacturer recommendation. The bilirubin is oxidized by vanadate at about pH 2.9 to produce biliverdin. In the presence of detergent and vanadate, both conjugate and unconjugated bilirubin are oxidized. This oxidation reaction causes a decrease in the optical density of the yellow color, which is specific to bilirubin. The decrease in optical density at 450/546 nm is proportional to the total bilirubin concentration in the sample.
Serum total bile acids were measured using Randox kit for Daytona Plus automate (BI 3863) according to the manufacturer recommendation. In the presence of Thio-NAD, the enzyme 3-α-hydroxysteroid dehydrogenase (3-α-HSD) converts bile acids to 3-keto steroids and Thio-NADH. In the presence of excess NADH, the enzyme cycling occurs efficiently and the rate of formation of Thio-NADH is determined by measuring specific change of absorbance at 405 nm.
The concentration of serum interleukin-6 (IL6) was determined using a multiplex sandwich ELISA system (Mouse Magnetic Luminex #LSXAMSM-06, Biotechne) according to the manufacturer instructions. […] After washing, IL6 was detected through the addition of biotinylated antibodies. […]

Row | Structure (SMILES) | inhibition at 3 µM (HepG2 cell line; 3 μM compound) [%] | reduction of total bilirubin (C57BL/6J male mice; p=0.003) [%] | reduction of total bile acids (C57BL/6J male mice; p=0.004) [%] | change of pro-inflammatory cytokine IL6 (serum) (C57BL/6J male mice; p=0.01) [%] | decrease of serum ASAT (C57BL/6J male mice; p=0.01) [%] | decrease of serum ALAT (C57BL/6J male mice; p=0.03) [%] | inhibition at 10 µM (HepG2 cell line; 10 μM compound) [%]
1 | COc1ccc(OC(=O)N(CC(=O)O)Cc2ccc(OCCc3nc(-c4ccccc4)oc3C)cc2)cc1 [Cpd.2, N-[(4-methoxyphenoxy)carbonyl]-N-[[4-[2-(5-methyl-2-phenyl-4-oxazolyl)ethoxy]phenyl]methyl]glycine] | 24 |  |  |  |  |  | 
2 | CCO[C@@H](Cc1ccc(OCCc2ccc(OS(C)(=O)=O)cc2)cc1)C(=O)O [Cpd. 1, (S)-2-ethoxy-3-(4-(4-((methylsulfonyl)oxy)phenethoxy)phenyl) propanoic acid] |  | 73 | 79 | −78 | 66 | 57 | 12
